What follows are compounds tested on Lysozyme (assay: Inhibition of Maillard reaction: suppression of lysozyme dimer formation (lysozyme + fructose, SDS-PAGE)). Conditions: inhibition ratio of test compound to aminoguanidine (positive control); lysozyme 10 mg/ml, fructose 100 mM, 0.2M sodium phosphate pH 7.4, 37° C., 3 days; dimer amount by SDS-PAGE.
Type: biochemical
Description: Lysozyme and fructose were dissolved in a buffer solution of 0.2M sodium phosphate (pH 7.4) to respectively give concentrations of 10 mg/ml and 100 mM. After incubating at 37° C. for 3 days, a definite amount of the mixture was taken out and electrophoresed with the use of SDS-PAGE. After the completion of the electrophoresis, the gel was stained with 0.2% Coomassie Brilliant Blue R-250 and the amount of the dimer thus formed was determined.
Each of the test compounds was added before the initiation of the incubation and the effect of suppressing the formation of the dimer was examined at various concentrations, whereby the IC50 value was obtained. As a positive control, aminoguanidine, which is a known glycation inhibitor, was employed and the inhibition ratio of the test compound to aminoguanidine (IC50 of aminoguanidine/IC50 of test compound) was calculated.

| IC50 of aminoguanidine/IC50 of test compound | Compound |
| --- | --- |
| 7.4 | CC(C)=NN=C1NC(=O)C(CC(=O)Nc2ccc(F)c(F)c2)S1 (stereo not drawn) [Test compound 49, 5-[N-(3,4-difluorophenyl)carbamoylmethyl]-2-isopropylidenehydrazonothiazolidin-4-one] |
| 5.4 | COC(=O)CC1NC(=NN=C(C)C)NC1=O (stereo not drawn) [Test compound 43, 2-Isopropylidenehydrazono-5-methoxycarbonylmethylimidazolidin-4-one] |
| 6.4 | CC(C)=NN=C1NC(=O)C(CC(=O)Nc2c(C)cccc2C)S1 (stereo not drawn) [Test compound 112, 5-[N-(2,6-dimethylphenyl)carbamoylmethyl]-2-isopropylidenehydrazonothiazolidin-4-one] |
| 8.0 | CC(C)=NN=C1NC(=O)C(Cc2ccc(OCc3c(Cl)cccc3Cl)cc2)N1 (stereo not drawn) [Test compound 5, 5-[4-(2,6-Dichlorobenzyloxy)benzyl]-2-isopropylidenehydrazonoimidazolidin-4-one] |
| 4.0 | CC(C)=NN=C1NC(=O)C(Cc2c[nH]cn2)N1 (stereo not drawn) [Test compound 78, 5-(4-Imidazolylmethyl)-2-isopropylidenehydrazonoimidazolidin-4-one] |
| 5.4 | COc1cc(NC(=O)CC2SC(=NN=C(C)C)NC2=O)c(C(=O)O)cc1OC (stereo not drawn) [Test compound 114, 5-[N-(2-carboxy-4,5-dimethoxyphenyl)carbamoylmethyl]-2-isopropylidenehydrazonothiazolidin-4-one] |
| 3.1 | 5-[N-(4-carboxyphenyl)carbamoylmethyl]-2-isopropylidenehydrazonothiazolidin-4-one [Test compound 16] |
| 3.5 | 2-Isopropylidenehydrazino-4-methylthiazole [Test compound 23] |
| 0.94 | 5-[N-(2-carboxyphenyl)carbamoylmethyl]-2-isopropylidenehydrazonothiazolidin-4-one [Test compound 92] |
| 8.3 | CC(C)=NN=C1NC(=O)C(Cc2ccc(OCc3ccc(Cl)cc3)cc2)N1 (stereo not drawn) [Test compound 6, 5-[4-(4-Chlorobenzyloxy)benzyl]-2-isopropylidenehydrazonoimidazolidin-4-one] |
| 4.6 | CC(C)=NN=C1NC(=O)C(CC(=O)NCc2cccnc2)S1 (stereo not drawn) [Test compound 66, 2-Isopropylidenehydrazono-5-[N-(3-pyridylmethyl)carbamoylmethyl]thiazolidin-4-one] |
| 2.3 | 5-[N-(1-ethoxycarbonyl-3-methylbutyl)carbamoylmethyl]-2-isopropylidenehydrazonothiazolidin-4-one [Test compound 97] |
| 7.3 | COc1ccc(NC(=O)CC2SC(=NN=C(C)C)NC2=O)c(C)c1 (stereo not drawn) [Test compound 116, 2-Isopropylidenehydrazono-5-[N-(4-methoxy-2-methylphenyl)carbamoylmethyl]thiazolidin-4-one] |
| 2.6 | CC(C)=NN=C1NC(=O)C(Cc2c[nH]c3ccccc23)N1 (stereo not drawn) [Test compound 40, 5-(3-Indolylmethyl)-2-isopropylidenehydrazonoimidazolidin-4-one] |
| 3.0 | CCOC(=O)CN1C(=O)C(CC(=O)O)SC1=NN=C(C)C (stereo not drawn) [Test compound 20, 5-Carboxymethyl-3-ethoxycarbonylmethyl-2-isopropylidenehydrazonothiazolidin-4-one] |
| 7.0 | CC(C)=NN=C1NC(=O)C(CC(=O)NC(C)c2ccccc2)S1 (stereo not drawn) [Test compound 72, 2-Isopropylidenehydrazono-5-[N-(1-phenylethyl)carbamoylmethyl]thiazolidin-4-one] |
| 1.1 | CC(C)=NN=C1NC(=O)C(c2ccc(O)cc2)N1 (stereo not drawn) [Test compound 7, 5-(4-Hydroxyphenyl)-2-isopropylidenehydrazonoimidazolidin-4-one] |
| 2.6 | CC(C)=NN=C1NC(=O)C(CC(C)C)N1 (stereo not drawn) [Test compound 67, 2-Isopropylidenehydrazono-5-(2-methylpropyl)imidazolidin-4-one] |
| 1.7 | 5-[N-(1-carboxy-3-methylbutyl)carbamoylmethyl]-2-isopropylidenehydrazonothiazolidin-4-one [Test compound 103] |
| 2.8 | 2-Isopropylidenehydrazono-5(R)-(N-phenylcarbamoylmethyl)thiazolidin-4-one [Test compound 109] |
| 5.7 | CC(C)=NN=C1NC(=O)C(CC(=O)Nc2ccccc2)N1 (stereo not drawn) [Test compound 46, 2-Isopropylidenehydrazono-5-(N-phenylcarbamoylmethyl)imidazolidin-4-one] |

| IC50 of aminoguanidine/IC50 of test compound | Compound |
| --- | --- |
| 4.4 | 5-(4-Benzyloxybenzyl)-2-isopropylidenehydrazonothiazolidin-4-one [Test compound 12] |
| 0.91 | CCOC(=O)CN1C(=O)C(CC(=O)Nc2ccccc2)SC1=NN=C(C)C (stereo not drawn) [Test compound 61, 3-Ethoxycarbonylmethyl-5-(N-phenylcarbamoylmethyl)-2-isopropylidenehydrazonothiazolin-4-one] |
| 4.8 | CC(C)=NN=C1NC(=O)C(Cc2ccc(O)cc2)N1 (stereo not drawn) [Test compound 4, 5-(4-Hydroxybenzyl)-2-isopropylidenehydrazonoimidazolidin-4-one] |
| 78.9 | CC(C)=NN=C1NC(=O)C(Cc2ccc(O)c(O)c2)N1 (stereo not drawn) [Test compound 42, 5-(3,4-Dihydroxybenzyl)-2-isopropylidenehydrazonoimidazolidin-4-one] |
| 36 | CC(C)=NN=C1NC(=O)C(CC(=O)NCc2cccs2)S1 (stereo not drawn) [Test compound 70, 2-isopropylidenehydrazono-5-[N-(2-thienylmethyl)carbamoylmethyl]thiazolidin-4-one] |
| 33.7 | COc1ccc(NC(=O)Cc2csc(NN=C(C)C)n2)cc1OC [Test compound 94, 4-[N-(3,4-dimethoxyphenyl)carbamoylmethyl]-2-isopropylidenehydrazinothiazole] |
| 4.3 | 2-Isopropylidenehydrazono-5-{N-[1-methoxycarbonyl-2-(3-indolyl)ethyl]carbamoylmethyl}thiazolidin-4-one [Test compound 102] |
| 0.8 | 2-Isopropylidenehydrazono-5-[N-(3,4,5-trichlorophenyl)carbamoylmethyl]thiazolidin-4-one [Test compound 57] |
| 7.9 | 2-(4-Acetoamidobenzenesulfonohydrazono)-5-(4-benzyloxybenzyl)imidazolidin- 4-one [Test compound 76] |
| 0.8 | 2-Isopropylidenehydrazono-5-[N-(1-naphthyl)carbamoylmethyl]thiazolidin-4-one [Test compound 59] |
| 4.2 | 5-[N-(2-carboxy-4-methylphenyl)carbamoylmethyl]-2-isopropylidenehydrazonothiazolidin-4-one [Test compound 54] |
| 1.3 | CC(C)=NN=C1NC(=O)C(CC(=O)NC(C)c2ccccc2)N1 (stereo not drawn) [Test compound 73, 2-Isopropylidenehydrazono-5-[N-(1-phenylethyl)carbamoylmethyl]imidazolidin-4-one] |
| 2.2 | O=C1NC(=NN=C2CCCC2)NC1Cc1ccc(OCc2ccccc2)cc1 (stereo not drawn) [Test compound 77, 2-Cyclopentylidenehydrazono-5-(4-benzyloxybenzyl)imidazolidin-4-one] |
| 1.3 | CC(C)=NN=C1NC(Cc2ccc(O)cc2)C(=O)N1Cc1ccccc1 (stereo not drawn) [Test compound 9, 3-Benzyl-5-(4-hydroxybenzyl)-2-isopropylidenehydrazonoimidazolidin-4-one] |
| 55 | CC(C)=NN=C1NC(=O)C(CC(=O)Nc2ccccc2)S1 (stereo not drawn) [Test compound 32, 2-isopropylidenehydrazono-5-(N-phenylcarbamoylmethyl)thiazolidin-4-one] |
| 42 | COc1ccc(NC(=O)CC2SC(=NN=C(C)C)NC2=O)cc1OC (stereo not drawn) [Test compound 90, 5-[N-(3,4-dimethoxyphenyl)carbamoylmethyl]-2-isopropylidenehydrazonothiazolidin-4-one] |
| 26 | COC(=O)c1ccccc1NC(=O)CC1SC(=NN=C(C)C)NC1=O (stereo not drawn) [Test compound 93, 2-Isopropylidenehydrazono-5-[N-(2-methoxycarbonylphenyl)carbamoylmethyl]thiazolidin-4-one] |
| 1.2 | CCOC(=O)c1ccc(NC(=O)CC2SC(=NN=C(C)C)NC2=O)cc1 (stereo not drawn) [Test compound 15, 5-[N-(4-ethoxycarbonylphenyl)carbamoylmethyl]-2-isopropylidenehydrazonothiazolidin-4-one] |
| 5.2 | CC(C)=NN=C1NC(=O)C(CC(=O)OCc2ccccc2)N1 (stereo not drawn) [Test compound 44, 5-Benzyloxycarbonylmethyl-2-isopropylidenehydrazonoimidazolidin-4-one] |
| 4.2 | 5-[N-(3-ethoxycarbonylphenyl)carbamoylmethyl]-2-isopropylidenehydrazonothiazolidin-4-one [Test compound 105] |

| Compound | IC50 of aminoguanidine/IC50 of test compound |
| --- | --- |
| 5-(N-carboxymethylcarbamoylmethyl)-2-isopropylidenehydrazonothiazolidin-4- one [Test compound 47] | 1.7 |

Source: patent publication US5677322A, “Maillard reaction inhibitor” (Otsuka Pharmaceutical Co., Ltd., priority 1993, dated 1997)
